The values that follow come from ChEMBL document CHEMBL4400520, “Benzofuran-isatin-imine hybrids tethered via different length alkyl linkers: Design, synthesis and in vitro evaluation of anti-tubercular and anti-bacterial activities as well as cytotoxicity” (Eur J Med Chem, 2019).

In brackets after ≈: the same amount, converted by molar mass.

Common to all, as to format: functional
Assay [1] concerns Mycobacterium tuberculosis. Nature of the assay: Antitubercular activity against multidrug resistant Mycobacterium tuberculosis isolate 1.
Assay [2] deals with Mycobacterium tuberculosis. The experiment in a line: Antitubercular activity against multidrug resistant Mycobacterium tuberculosis isolate 2.
Assay [3] relates to Mycobacterium tuberculosis. The experiment in a line: Potency index, ratio of isoniazid MIC to compound MIC for multidrug resistant Mycobacterium tuberculosis isolate 1.
The test system of assay [4] is Mycobacterium tuberculosis. Nature of the assay: Potency index, ratio of rifampin MIC to compound MIC for multidrug resistant Mycobacterium tuberculosis isolate 2.
Assay [5] has as its system Mycobacterium tuberculosis. The experiment in a line: Potency index, ratio of ciprofloxacin MIC to compound MIC for multidrug resistant Mycobacterium tuberculosis isolate 1.
In assay [6] the test system is Mycobacterium tuberculosis. The experiment in a line: Potency index, ratio of isoniazid MIC to compound MIC for multidrug resistant Mycobacterium tuberculosis isolate 2.
In assay [7] the test system is Mycobacterium tuberculosis. The experiment in a line: Potency index, ratio of ciprofloxacin MIC to compound MIC for multidrug resistant Mycobacterium tuberculosis isolate 2.
Assay [8] concerns Mycobacterium tuberculosis. Nature of the assay: Potency index, ratio of rifampin MIC to compound MIC for multidrug resistant Mycobacterium tuberculosis isolate 1.

By MIC is commonly meant the lowest concentration that inhibits growth of the organism. Lower therefore signals inhibition by little substance. `CCO/N=C1\C(=O)N(CCCCOc2ccc3oc(-c4ccc(OC)cc4)c(C(=O)OCC)c3c2)c2ccccc21`: the MIC in assay [1] was found to be 3.23 µg/mL (≈ 5.8 µM); in assay [2], 3.42 µg/mL (≈ 6.14 µM).

Turning to `CCO/N=C1\C(=O)N(CCCOc2ccc3oc(-c4ccc(OC)cc4)c(C(=O)OCC)c3c2)c2ccccc21`, the values for the MIC in assay [1] and in assay [2] were 4.25 µg/mL (≈ 7.83 µM) and 5.88 µg/mL (≈ 10.8 µM), respectively.

For the compound `NNC(=O)c1ccncc1` [ISONIAZID], the minimal inhibitory concentration (MIC) in assay [1] and in assay [2] was over 40 µg/mL in each case.

On to `CCOC(=O)c1c(-c2ccc(OC)cc2)oc2ccc(OCCCCN3C(=O)/C(=N\OC)c4ccccc43)cc12`, for which the Ratio result in assay [3], in assay [4], in assay [5], in assay [6], in assay [7] and in assay [8] was “>=48” in each case. Also, the MIC in assay [1] came out at 0.062 µg/mL (≈ 0.114 µM); in assay [2], 0.16 µg/mL (≈ 0.295 µM).

`CCOC(=O)c1c(-c2ccc(OC)cc2)oc2ccc(OCCCCCCN3C(=O)/C(=N\NC(N)=S)c4ccccc43)cc12`: the results for the MIC in assay [1] and in assay [2] were 0.47 µg/mL (≈ 0.765 µM) and 0.48 µg/mL (≈ 0.781 µM), respectively.

For `CCOC(=O)c1c(-c2ccc(OC)cc2)oc2ccc(OCCCN3C(=O)/C(=N\OC)c4ccccc43)cc12`, the MIC in assay [1] turned out to be 0.16 µg/mL (≈ 0.303 µM); in assay [2], 0.21 µg/mL (≈ 0.397 µM).

Regarding `CCOC(=O)c1c(-c2ccc(OC)cc2)oc2ccc(OCCCCCCN3C(=O)/C(=N\NC(N)=S)c4cc(F)ccc43)cc12`, the MIC in assay [1] amounted to 0.95 µg/mL (≈ 1.5 µM); in assay [2], 0.9 µg/mL (≈ 1.42 µM).

For `CO[C@H]1/C=C/O[C@@]2(C)Oc3c(C)c(O)c4c(O)c(c(/C=N/N5CCN(C)CC5)c(O)c4c3C2=O)NC(=O)/C(C)=C\C=C\[C@H](C)[C@H](O)[C@@H](C)[C@@H](O)[C@@H](C)[C@H](OC(C)=O)[C@@H]1C` [RIFAMPIN], the MIC in assay [1] and in assay [2] was over 40 µg/mL each time.

Take `CCOC(=O)c1c(-c2ccc(OC)cc2)oc2ccc(OCCCCCCN3C(=O)/C(=N\OC)c4cc(F)ccc43)cc12`: the MIC in assay [1] stood at 2.85 µg/mL (≈ 4.84 µM); in assay [2] it was 3.56 µg/mL (≈ 6.05 µM).

For `O=C(O)c1cn(C2CC2)c2cc(N3CCNCC3)c(F)cc2c1=O` [CIPROFLOXACIN], the MIC in assay [1] was determined as 0.39 µg/mL (≈ 1.18 µM); in assay [2], 0.27 µg/mL (≈ 0.815 µM).

Consider `CCOC(=O)c1c(-c2ccc(OC)cc2)oc2ccc(OCCCCCCN3C(=O)/C(=N\OC)c4ccccc43)cc12`, for which the figures for the minimal inhibitory concentration (MIC) in assay [1] and in assay [2] were 1.73 µg/mL (≈ 3.03 µM) and 1.87 µg/mL (≈ 3.28 µM), respectively.

Consider `CCOC(=O)c1c(-c2ccc(OC)cc2)oc2ccc(OCCCCCCN3C(=O)C(=O)c4cc(F)ccc43)cc12`, for which the MIC in assay [1] was determined as 14.2 µg/mL (≈ 25.3 µM); in assay [2], 12.9 µg/mL (≈ 23.1 µM).

On to `CCOC(=O)c1c(-c2ccc(OC)cc2)oc2ccc(OCCCCCN3C(=O)/C(=N\OC)c4cc(F)ccc43)cc12`, for which the values for the minimal inhibitory concentration (MIC) in assay [1] and in assay [2] were 3.46 µg/mL (≈ 6.02 µM) and 4.24 µg/mL (≈ 7.38 µM), respectively.

On to `CNC(=O)c1c(-c2ccc(O)cc2)oc2ccc(O)c(CN3CCCCC3)c12`, for which the MIC in assay [1] and in assay [2] was under 0.016 µg/mL throughout.

Turning to `CCO/N=C1\C(=O)N(CCCCCCOc2ccc3oc(-c4ccc(OC)cc4)c(C(=O)OCC)c3c2)c2ccccc21`, the MIC in assay [1] is 2.69 µg/mL (≈ 4.6 µM); in assay [2], 3.86 µg/mL (≈ 6.6 µM).

With `CCO/N=C1\C(=O)N(CCCOc2ccc3oc(-c4ccc(OC)cc4)c(C(=O)OCC)c3c2)c2ccc(OC)cc21`, the MIC in assay [1] is 2.24 µg/mL (≈ 3.91 µM); in assay [2], 2.12 µg/mL (≈ 3.7 µM).

Consider `CCOC(=O)c1c(-c2ccccc2)oc2ccc(OCCCN3C(=O)/C(=N\OC)c4ccccc43)cc12`, for which the MIC in assay [1] is 0.94 µg/mL (≈ 1.89 µM); in assay [2], 0.91 µg/mL (≈ 1.83 µM).

As for `CCOC(=O)c1c(-c2ccc(OC)cc2)oc2ccc(OCCCN3C(=O)/C(=N\OC)c4cc(OC)ccc43)cc12`, the MIC in assay [1] was determined as 0.49 µg/mL (≈ 0.877 µM); in assay [2] it was 0.29 µg/mL (≈ 0.519 µM).

Turning to `CCOC(=O)c1c(-c2ccc(F)cc2)oc2ccc(OCCCCCCN3C(=O)C(=O)c4cc(F)ccc43)cc12`, the MIC in assay [1] turned out to be 5.89 µg/mL (≈ 10.8 µM); in assay [2], 2.98 µg/mL (≈ 5.44 µM).

Take `CCOC(=O)c1c(-c2ccccc2)oc2ccc(OCCCN3C(=O)/C(=N\OC)c4cc(OC)ccc43)cc12`: the MIC in assay [1] worked out at 0.21 µg/mL (≈ 0.397 µM); in assay [2] it was 0.27 µg/mL (≈ 0.511 µM).
